# Laboratory results from US20240100170A1, “CYCLIC-AMP RESPONSE ELEMENT BINDING PROTEIN (CBP) AND/OR ADENOVIRAL E1A BINDING PROTEIN OF 300 KDA (P300) DEGRADATION COMPOUNDS AND METHODS OF USE” (CULLGEN (SHANGHAI), INC., priority 2020, published 2024).
# Target: P300 (Homo sapiens, UniProt Q09472)
# Experiment: percentage of inhibition (degradation) of p300 at 10 nM, Tables 2-4
# Type: cell-based
# Set-up: LNCaP or 22RV1 cells that express CBP/P300 proteins were treated with GNE-781 or the bivalent compounds; endogenous in cells; host or cells: LNCaP or 22RV1 (not given)
# Conditions: p300, 10 nM; Table 2; read-out: Degradation (10 nM)
# Procedure: Cultured cells or tissue chunks were washed with cold PBS once and lysed in cold RIPA buffer supplemented with protease inhibitors and phosphatase inhibitors (Beyotime Biotechnology). The solutions were then incubated at 4° C. for 30 minutes with gentle agitation to fully lyse cells. Cell lysates were centrifuged at 13,000 rpm for 10 minutes at 4° C. and pellets were discarded. Total protein concentrations in the lysates were determined by BCA assays (Beyotime Biotechnology). Cell lysates were mixed with Laemmli loading buffer to 1 X and heated at 99° C. for 5 min. Proteins were resolved on SDS-PAGE and visualized by chemiluminescence. Images were taken by a ChemiDoc MP Imaging system (Bio-Rad). Protein bands were quantitated using the accompanied software provided by Bio-Rad.
# Chain of P300 (Q09472 whole entry): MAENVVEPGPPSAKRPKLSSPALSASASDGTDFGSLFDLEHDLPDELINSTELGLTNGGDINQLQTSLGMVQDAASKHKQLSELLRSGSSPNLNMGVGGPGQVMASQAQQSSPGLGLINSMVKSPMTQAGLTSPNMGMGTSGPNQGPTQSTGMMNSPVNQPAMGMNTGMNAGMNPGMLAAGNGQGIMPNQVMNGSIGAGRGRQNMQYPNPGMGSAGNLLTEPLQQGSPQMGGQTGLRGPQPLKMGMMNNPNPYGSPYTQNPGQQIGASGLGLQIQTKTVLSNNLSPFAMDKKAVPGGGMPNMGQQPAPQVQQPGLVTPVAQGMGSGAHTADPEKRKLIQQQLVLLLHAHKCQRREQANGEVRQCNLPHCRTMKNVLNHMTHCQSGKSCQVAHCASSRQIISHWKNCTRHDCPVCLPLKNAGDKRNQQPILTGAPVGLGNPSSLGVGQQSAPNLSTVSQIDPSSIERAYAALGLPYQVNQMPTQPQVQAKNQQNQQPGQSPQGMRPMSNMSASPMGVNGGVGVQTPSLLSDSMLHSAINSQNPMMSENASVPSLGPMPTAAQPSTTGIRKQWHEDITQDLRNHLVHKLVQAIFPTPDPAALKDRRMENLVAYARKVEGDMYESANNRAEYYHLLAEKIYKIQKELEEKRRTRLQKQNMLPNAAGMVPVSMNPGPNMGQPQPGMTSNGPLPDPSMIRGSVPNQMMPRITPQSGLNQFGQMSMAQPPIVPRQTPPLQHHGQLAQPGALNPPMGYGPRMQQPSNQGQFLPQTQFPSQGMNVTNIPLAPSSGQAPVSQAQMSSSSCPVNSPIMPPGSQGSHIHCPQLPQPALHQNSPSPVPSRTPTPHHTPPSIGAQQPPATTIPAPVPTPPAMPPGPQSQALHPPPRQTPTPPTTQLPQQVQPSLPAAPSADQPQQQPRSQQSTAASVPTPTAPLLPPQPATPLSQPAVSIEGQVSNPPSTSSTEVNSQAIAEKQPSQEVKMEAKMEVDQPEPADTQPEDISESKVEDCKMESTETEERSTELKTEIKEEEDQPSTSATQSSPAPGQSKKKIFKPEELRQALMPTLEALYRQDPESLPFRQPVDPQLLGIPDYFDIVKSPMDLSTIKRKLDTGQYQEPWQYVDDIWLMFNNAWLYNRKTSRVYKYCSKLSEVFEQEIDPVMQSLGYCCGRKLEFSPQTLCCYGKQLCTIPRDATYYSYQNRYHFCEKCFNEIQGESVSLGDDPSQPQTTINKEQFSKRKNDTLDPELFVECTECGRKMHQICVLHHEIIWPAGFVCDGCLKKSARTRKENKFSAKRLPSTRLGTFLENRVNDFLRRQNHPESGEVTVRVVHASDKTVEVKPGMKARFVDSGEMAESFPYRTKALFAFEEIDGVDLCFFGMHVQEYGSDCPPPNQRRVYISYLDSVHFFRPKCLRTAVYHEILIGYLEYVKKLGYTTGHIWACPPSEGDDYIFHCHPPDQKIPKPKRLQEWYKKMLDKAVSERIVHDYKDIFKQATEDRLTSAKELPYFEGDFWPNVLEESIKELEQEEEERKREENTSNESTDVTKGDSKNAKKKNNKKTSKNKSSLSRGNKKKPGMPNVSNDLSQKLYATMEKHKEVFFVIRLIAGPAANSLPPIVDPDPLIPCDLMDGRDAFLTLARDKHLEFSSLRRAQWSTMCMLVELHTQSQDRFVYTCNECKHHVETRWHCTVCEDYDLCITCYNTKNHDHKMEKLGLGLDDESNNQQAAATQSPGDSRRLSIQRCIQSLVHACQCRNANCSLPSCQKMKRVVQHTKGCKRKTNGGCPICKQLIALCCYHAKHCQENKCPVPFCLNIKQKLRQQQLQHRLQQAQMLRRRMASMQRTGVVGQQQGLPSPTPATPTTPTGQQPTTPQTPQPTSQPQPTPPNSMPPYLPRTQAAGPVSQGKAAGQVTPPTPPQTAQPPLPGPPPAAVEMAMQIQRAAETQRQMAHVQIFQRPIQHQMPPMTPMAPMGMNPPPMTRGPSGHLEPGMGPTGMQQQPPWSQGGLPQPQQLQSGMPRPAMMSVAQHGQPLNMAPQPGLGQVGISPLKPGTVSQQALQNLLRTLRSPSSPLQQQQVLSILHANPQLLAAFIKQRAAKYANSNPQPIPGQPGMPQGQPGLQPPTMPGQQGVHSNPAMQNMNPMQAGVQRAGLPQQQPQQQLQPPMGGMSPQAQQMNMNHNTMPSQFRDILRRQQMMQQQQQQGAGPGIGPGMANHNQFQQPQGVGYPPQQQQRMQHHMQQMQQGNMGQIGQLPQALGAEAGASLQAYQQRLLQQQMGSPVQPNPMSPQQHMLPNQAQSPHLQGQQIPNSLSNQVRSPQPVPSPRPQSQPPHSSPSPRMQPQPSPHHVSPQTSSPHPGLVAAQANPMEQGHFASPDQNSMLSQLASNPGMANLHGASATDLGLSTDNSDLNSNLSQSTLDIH
row,SMILES,inhibition at 0.01 µM [%]
1,"CNC(=O)N1CCc2c(c(N3CCCc4cc(-c5cnn(C)c5)c(C(F)F)cc43)nn2C2CCN(C(=O)CNc3cccc4c3C(=O)N(C3CCC(=O)NC3=O)C4=O)CC2)C1 (centres unmarked) [P-013, 3-(7-(difluoromethyl)-6-(1-methyl-1H-pyrazol-4-yl)-3,4-dihydroquinolin-1(2H)-yl)-1-(1-((2-(2,6-dioxopiperidin-3-yl)-1,3-dioxoisoindolin-4-yl)glycyl)piperidin-4-yl)-N-methyl-1,4,6,7-tetrahydro-5H-pyrazolo[4,3-c]pyridine-5-carboxamide]",20 to 50

# Same assay, conditions: p300, 10 nM; Table 3; read-out: Degradation (10 nM)
row,SMILES,inhibition at 0.01 µM [%]
1,"CNC(=O)N1CCc2c(c(N3CCCc4cc(-c5cnn(C)c5)c(C(F)F)cc43)nn2C2CCN(C(=O)CCOCCC(=O)N[C@H](C(=O)N3C[C@H](O)C[C@H]3C(=O)NCc3ccc(-c4scnc4C)cc3)C(C)(C)C)CC2)C1 [P-065, 3-(7-(difluoromethyl)-6-(1-methyl-1H-pyrazol-4-yl)-3,4-dihydroquinolin-1(2H)-yl)-1-(1-(3-(3-(((S)-1-((2S,4R)-4-hydroxy-2-((4-(4-methylthiazol-5-yl)benzyl)carbamoyl)pyrrolidin-1-yl)-3,3-dimethyl-1-oxobutan-2-yl)amino)-3-oxopropoxy)propanoyl)piperidin-4-yl)-N-methyl-1,4,6,7-tetrahydro-5H-pyrazolo[4,3-c]pyridine-5-carboxamide]",< 20

# Tested on: LNCaP prostate cancer cell
# Experiment: LNCaP cell viability (CellTiter-Glo)
# Type: cell-based
# Conditions: Homo sapiens, 72 h; LNCaP cell viability, 3 days, CellTiter-Glo; Table 3
# Procedure: LNCaP cells seeded in 96-well plates were treated with 10 μM GNE-781 or selected bivalent compounds, i.e. P-001, P-002, and P-019, following a 12-point 3-fold serial dilution. Three days after treatment, cell viability was determined using the CellTiter-Glo kit (Promega) following manufacturer's instructions. Cell viability was normalized to the mean values of 3 replicates of untreated cells. Dose-dependent response was analyzed following the least-squares non-linear regression method using the GraphPad Prism 5.0 software.
# LNCaP (clone FGC), 22RV1 and other cells were cultured at 37° C. with 5% CO 2 in RPMI 1640 Medium supplemented with 10% fetal bovine serum. Cells were authenticated using the short tandem repeat (STR) assays. Mycoplasma test results were negative.
# Cells were seeded at a density of 5000 cells per well in 96-well assay plates and treated with test compounds following a 12-point 3-fold serial dilution. Three days later, cell viability was determined using the CellTiter-Glo assay kit according to the manufactureR's instructions. The dose-response curves were determined and IC50 values were calculated using the GraphPad Prism software following a nonlinear regression (least squares fit) method.
row,SMILES,IC50 [nM]
1,"CNC(=O)N1CCc2c(c(N3CCCc4cc(-c5cnn(C)c5)c(C(F)F)cc43)nn2C2CCN(C(=O)CCOCCC(=O)N[C@H](C(=O)N3C[C@H](O)C[C@H]3C(=O)NCc3ccc(-c4scnc4C)cc3)C(C)(C)C)CC2)C1 [P-065, 3-(7-(difluoromethyl)-6-(1-methyl-1H-pyrazol-4-yl)-3,4-dihydroquinolin-1(2H)-yl)-1-(1-(3-(3-(((S)-1-((2S,4R)-4-hydroxy-2-((4-(4-methylthiazol-5-yl)benzyl)carbamoyl)pyrrolidin-1-yl)-3,3-dimethyl-1-oxobutan-2-yl)amino)-3-oxopropoxy)propanoyl)piperidin-4-yl)-N-methyl-1,4,6,7-tetrahydro-5H-pyrazolo[4,3-c]pyridine-5-carboxamide]",74.5

# Same assay, conditions: Homo sapiens, 72 h; LNCaP cell viability, 3 days, CellTiter-Glo; Table 4
row,SMILES,IC50 [nM]
1,"CC(=O)N1CCc2c(c(N3CCCc4cc(-c5cnn(C)c5)c(C(F)F)cc43)nn2C2CCN(C(=O)CN3CCN(CC#Cc4cccc5c4n(C)c(=O)n5C4CCC(=O)NC4=O)CC3)CC2)C1 (centres unmarked) [P-226, 3-(4-(3-(4-(2-(4-(5-Acetyl-3-(7-(difluoromethyl)-6-(1-methyl-1H-pyrazol-4-yl)-3,4-dihydroquinolin-1(2H)-yl)-4,5,6,7-tetrahydro-1H-pyrazolo[4,3-c]pyridin-1-yl)piperidin-1-yl)-2-oxoethyl)piperazin-1-yl)prop-1-yn-1-yl)-3-methyl-2-oxo-2,3-dihydro-1H-benzo[d]imidazol-1-yl)piperidine-2,6-dione]",398
2,"CC(=O)N1CCc2c(c(N3CCCc4cc(-c5cnn(C)c5)c(C(F)F)cc43)nn2C2CCN(CCCCN3CCC(Cn4c(=O)n(C5CCC(=O)NC5=O)c5ccccc54)CC3)CC2)C1 (centres unmarked) [P-236, 3-(3-((1-(4-(4-(5-acetyl-3-(7-(difluoromethyl)-6-(1-methyl-1H-pyrazol-4-yl)-3,4-dihydroquinolin-1(2H)-yl)-4,5,6,7-tetrahydro-1H-pyrazolo[4,3-c]pyridin-1-yl)piperidin-1-yl)butyl)piperidin-4-yl)methyl)-2-oxo-2,3-dihydro-1H-benzo[d]imidazol-1-yl) piperidine-2,6-dione]",560
3,"CC(=O)N1CCc2c(c(N3CCCc4cc(-c5cnn(C)c5)c(C(F)F)cc43)nn2C2CCN(CCCCN3CCN(c4cccc5c4C(=O)N(C4CCC(=O)NC4=O)C5=O)CC3)CC2)C1 (centres unmarked) [P-248, 4-(4-(4-(4-(5-Acetyl-3-(7-(difluoromethyl)-6-(1-methyl-1H-pyrazol-4-yl)-3,4-dihydroquinolin-1(2H)-yl)-4,5,6,7-tetrahydro-1H-pyrazolo[4,3-c]pyridin-1-yl)piperidin-1-yl)butyl)piperazin-1-yl)-2-(2,6-dioxopiperidin-3-yl)isoindoline-1,3-dione]",241
4,"CC(=O)N1CCc2c(c(N3CCCc4cc(-c5cnn(C)c5)c(C(F)F)cc43)nn2C2CCN(CCN3CCC(COc4cccc5c4n(C)c(=O)n5C4CCC(=O)NC4=O)CC3)CC2)C1 (centres unmarked) [P-255, 3-(4-((1-(2-(4-(5-Acetyl-3-(7-(difluoromethyl)-6-(1-methyl-1H-pyrazol-4-yl)-3,4-dihydroquinolin-1(2H)-yl)-4,5,6,7-tetrahydro-1H-pyrazolo[4,3-c]pyridin-1-yl)piperidin-1-yl)ethyl)piperidin-4-yl)methoxy)-3-methyl-2-oxo-2,3-dihydro-1H-benzo[d]imidazol-1-yl)piperidine-2,6-dione]",> 500
5,"CC(=O)N1CCc2c(c(N3CCCc4cc(-c5cnn(C)c5)c(C(F)F)cc43)nn2C2CCN(C(=O)CN3CCN(CC(=O)Nc4cccc(NC5CCC(=O)NC5=O)c4)CC3)CC2)C1 (centres unmarked) [P-257, 2-(4-(2-(4-(5-acetyl-3-(7-(difluoromethyl)-6-(1-methyl-1H-pyrazol-4-yl)-3,4-dihydroquinolin-1(2H)-yl)-4,5,6,7-tetrahydro-1H-pyrazolo[4,3-c]pyridin-1-yl)piperidin-1-yl)-2-oxoethyl)piperazin-1-yl)-N-(3-((2,6-dioxopiperidin-3-yl)amino)phenyl)acetamide]",> 500
6,"CC(=O)N1CCc2c(c(N3CCCc4cc(-c5cnn(C)c5)c(C(F)F)cc43)nn2C2CCN(C(=O)CCN3CCN(CC(=O)Nc4cccc(NC5CCC(=O)NC5=O)c4)CC3)CC2)C1 (centres unmarked) [P-258, 2-(4-(3-(4-(5-acetyl-3-(7-(difluoromethyl)-6-(1-methyl-1H-pyrazol-4-yl)-3,4-dihydroquinolin-1(2H)-yl)-4,5,6,7-tetrahydro-1H-pyrazolo[4,3-c]pyridin-1-yl)piperidin-1-yl)-3-oxopropyl)piperazin-1-yl)-N-(3-((2,6-dioxopiperidin-3-yl)amino)phenyl)acetamide]",> 500
7,"CC(=O)N1CCc2c(c(N3CCCc4cc(-c5cnn(C)c5)c(C(F)F)cc43)nn2C2CCN(C(=O)CCCN3CCN(CC(=O)Nc4cccc(NC5CCC(=O)NC5=O)c4)CC3)CC2)C1 (centres unmarked) [P-259, 2-(4-(4-(4-(5-acetyl-3-(7-(difluoromethyl)-6-(1-methyl-1H-pyrazol-4-yl)-3,4-dihydroquinolin-1(2H)-yl)-4,5,6,7-tetrahydro-1H-pyrazolo[4,3-c]pyridin-1-yl)piperidin-1-yl)-4-oxobutyl)piperazin-1-yl)-N-(3-((2,6-dioxopiperidin-3-yl)amino)phenyl)acetamide]",> 500
8,"CC(=O)N1CCc2c(c(N3CCCc4cc(-c5cnn(C)c5)c(C(F)F)cc43)nn2C2CCN(C(=O)CC3CCN(CC(=O)Nc4cccc(NC5CCC(=O)NC5=O)c4)CC3)CC2)C1 (centres unmarked) [P-260, 2-(4-(2-(4-(5-acetyl-3-(7-(difluoromethyl)-6-(1-methyl-1H-pyrazol-4-yl)-3,4-dihydroquinolin-1(2H)-yl)-4,5,6,7-tetrahydro-1H-pyrazolo[4,3-c]pyridin-1-yl)piperidin-1-yl)-2-oxoethyl)piperidin-1-yl)-N-(3-((2,6-dioxopiperidin-3-yl)amino)phenyl)acetamide]",> 500
9,"CC(=O)N1CCc2c(c(N3CCCc4cc(-c5cnn(C)c5)c(C(F)F)cc43)nn2C2CCN(C(=O)CCC3CCN(CC(=O)Nc4cccc(NC5CCC(=O)NC5=O)c4)CC3)CC2)C1 (centres unmarked) [P-261, 2-(4-(3-(4-(5-acetyl-3-(7-(difluoromethyl)-6-(1-methyl-1H-pyrazol-4-yl)-3,4-dihydroquinolin-1(2H)-yl)-4,5,6,7-tetrahydro-1H-pyrazolo[4,3-c]pyridin-1-yl)piperidin-1-yl)-3-oxopropyl)piperidin-1-yl)-N-(3-((2,6-dioxopiperidin-3-yl)amino)phenyl)acetamide]",> 500
10,"CC(=O)N1CCc2c(c(N3CCCc4cc(-c5cnn(C)c5)c(C(F)F)cc43)nn2C2CCN(C(=O)CCCC3CCN(CC(=O)Nc4cccc(NC5CCC(=O)NC5=O)c4)CC3)CC2)C1 (centres unmarked) [P-262, 2-(4-(4-(4-(5-Acetyl-3-(7-(difluoromethyl)-6-(1-methyl-1H-pyrazol-4-yl)-3,4-dihydroquinolin-1(2H)-yl)-4,5,6,7-tetrahydro-1H-pyrazolo[4,3-c]pyridin-1-yl)piperidin-1-yl)-4-oxobutyl)piperidin-1-yl)-N-(3-((2,6-dioxopiperidin-3-yl)amino)phenyl)acetamide]",> 500
11,"CC(=O)N1CCc2c(c(N3CCCc4cc(-c5cnn(C)c5)c(C(F)F)cc43)nn2C2CCN(C(=O)CCCCCCCC(=O)Nc3cccc(NC4CCC(=O)NC4=O)c3)CC2)C1 (centres unmarked) [P-263, 9-(4-(5-Acetyl-3-(7-(difluoromethyl)-6-(1-methyl-1H-pyrazol-4-yl)-3,4-dihydroquinolin-1(2H)-yl)-4,5,6,7-tetrahydro-1H-pyrazolo[4,3-c]pyridin-1-yl)piperidin-1-yl)-N-(3-((2,6-dioxopiperidin-3-yl)amino)phenyl)-9-oxononanamide]",> 500
